Experimental data taken from EP0035728A1, “Cytostatically active amino-polyols, medicaments containing these compounds and their use” (Henkel Kommanditgesellschaft auf Aktien, priority 1980, dated 1981).

Key:
[1] = Cytostatic activity (test not described further); settings: result in words, no test conditions given
[2] = test system: Tumorart P 388 (Leukämie); assay: P 388 leukemia survival test in mice (NCI protocol 1200), T/C; type: in vivo, Mäusen; settings: nine doses, P 388 set i.p. with 10^6 cells/mouse, survival vs untreated controls
Method: Die T/C-Werte dieser Verbindung bei ihrer Austestung am TumorP 388 (Leukämie) unter Standardprüfbedingungen betragen 166 % (100 mg/kg) bzw. 165 % (50 mg/kg).
Die nachfolgenden Versuche wurden durchgeführt nach Testvorschriften des National Cancer Intitute Bethesda; Maryland 200014, veröffentlicht in "Cancer Chemotherapy Reports" Part 3, September 1972, Vol. 3, Nr. 2. Als Wirksubstanz wurde das Di-(2-hydroxy-3-brompropan)-glucamin des Beispiels 1 verwendet. Die Substanz wurde als wäßrige 1-%ige Injektionslösung unmittelbar vor der Applikation frisch hergestellt.
Bei Mäusen wurde gemäß Protokoll 1200 (Seite 91.c.) die Tumorart P 388 (Leukämie) i.p. mit 10^6 Zellen/Maus gesetzt. Die mittlere Überlebensdauer der nicht mit dem erfindungsgemäßen Wirkstoff behandelten Tiere wurde bestimmt.
Einer weiteren Gruppe von Versuchstieren wird der Wirkstoff appliziert. Der Wirkstoff wird dabei in neun Gaben in unterschiedlichen Versuchsreihen einmal zu je 100 mg/kg und in einer weiteren Versuchsreihe zu je 50 mg/kg verabreicht. In allen Fällen wird eine signifikante Verlängerungs der Lebensdauer der behandelten Testtiere gegenüber der Kontrollgruppe der nicht behandelten Tiere erzielt.

Compound	cytostatische Wirksamkeit [1]	Verlängerungsrate T/C ([2]; 50 mg/kg per dose) [%]	Verlängerungsrate T/C ([2]; 100 mg/kg per dose) [%]
CN(CC(O)CBr)C[C@H](O)[C@@H](O)[C@H](O)[C@H](O)CO (some centres unmarked) [N-Methyl-N-(2-hydroxy-3-brom-propyl)-glucamin]	unwirksam		
CN(CC(O)CCl)C[C@H](O)[C@@H](O)[C@H](O)[C@H](O)CO (some centres unmarked) [entsprechende 3-Chlorverbindung]	unwirksam		
Di-(2-hydroxy-3-brompropan)-glucamin [Beispiel 1]	cytostatisch aktiv	165	166
